The text below walks through data of patent US11247980B2, “Herbicidal uracilpyrid” (BASF SE, priority 2017, dated 2022).

For data set [1], the system named is sensitive (w.1). Description: greenhouse experiment, control of resistant weeds: sensitive biotype. Format: in vivo. The settings on record: for weed control (%) w.1: AMATA Amaranthus tamariscinus, sensitive biotype; for activity on sensitive weeds (w.1): greenhouse, scale from 0 to 100. The source says:
(§1) The culture containers used were plastic flowerpots containing loamy sand with approximately 3.0% of humus as the substrate. The seeds of the test plants were sown separately for each species and/or resistant biotype. For the pre-emergence treatment, the active ingredients, which had been suspended or emulsified in water, were applied directly after sowing by means of finely distributing nozzles. The containers were irrigated gently to promote germination and growth and subsequently covered with transparent plastic hoods until the plants had rooted. This cover caused uniform germination of the test plants, unless this had been impaired by the active ingredients. For the post-emergence treatment, the test plants were first grown to a height of 3 to 15 cm, depending on the plant habit, and only then treated with the active ingredients which had been suspended or emulsified in water. For this purpose, the test plants were either sown directly and grown in the same containers, or they were first grown separately as seedlings and transplanted into the test containers a few days prior to treatment. Depending on the species, the plants were kept at 10-25° C. or 20-35° C., respectively. The test period extended over 2 to 4 weeks. During this time, the plants were tended, and their response to the individual treatments was evaluated. The evaluation was carried out by using a scale from 0 to 100. 100 means no emergence of the plants or complete destruction of at least the above-ground parts, and 0 means no damage, or normal course of growth.
(§2) The plants used in the greenhouse experiments were of the following species and biotype: […]

Data set [2] relates to resistant weeds containing the ΔG210 mutation (w.2). Description: greenhouse experiment, control of resistant weeds: resistant biotype. Format: in vivo. Particulars: for weed control (%) w.2: AMATA Amaranthus tamariscinus, PPO resistant biotype 1 (ΔG210 mutation); for activity on resistant weeds containing the ΔG210 mutation (w.2): greenhouse, scale from 0 to 100.
From the text: as §1, §2

The test system of data set [3] is resistant weeds containing the ΔG210 mutation (w.3). The description is as above. The settings on record: for weed control (%) w.3: AMATA Amaranthus tamariscinus, PPO resistant biotype 2 (ΔG210 mutation); for activity on resistant weeds containing the ΔG210 mutation (w.3): greenhouse, scale from 0 to 100. Format: in vivo.
From the text: as §1, §2

Data set [4] has as its system BRADC. In words: greenhouse experiments, herbicidal activity, post-emergence treatment. The class given is in vivo, Brachiaria decumbens. The settings on record: application rate 2 g/ha, scale 0 to 100. From the text: (§3) The culture containers used were plastic flowerpots containing loamy sand with approximately 3.0% of humus as the substrate. The seeds of the test plants were sown separately for each species.
(§4) For the pre-emergence treatment, the active ingredients, which had been suspended or emulsified in water, were applied directly after sowing by means of finely distributing nozzles. The containers were irrigated gently to promote germination and growth and subsequently covered with transparent plastic hoods until the plants had rooted. This cover caused uniform germination of the test plants, unless this had been impaired by the active ingredients. For the post-emergence treatment, the test plants were first grown to a height of 3 to 15 cm, depending on the plant habit, and only then treated with the active ingredients which had been suspended or emulsified in water. For this purpose, the test plants were either sown directly and grown in the same containers, or they were first grown separately as seedlings and transplanted into the test containers a few days prior to treatment.
(§5) Depending on the species, the plants were kept at 10-25° C. or 20-35° C., respectively. The test period extended over 2 to 4 weeks. During this time, the plants were tended, and their response to the individual treatments was evaluated.
(§6) Evaluation was carried out using a scale from 0 to 100. […]

In data set [5] the test system is MATCH. The data set is described as above. The class given is in vivo, Matricaria chamomilla. Particulars: application rate 8 g/ha, scale 0 to 100.
From the text: as §3, §4, §5, §6

The subject of data set [6] is LOLMU. The description is as above. The class given is in vivo, Lolium multiflorum. The settings on record: application rate 8 g/ha, scale 0 to 100.
From the text: as §3, §4, §5, §6

Data set [7] concerns CHEAL. The data set is described as above. The class given is in vivo, Chenopodium album. Particulars: application rate 1 g/ha, scale 0 to 100.
From the text: as §3, §4, §5, §6

Data set [8] concerns ZEAMX. In words: greenhouse experiments, post-emergence treatment, crop compatibility. Particulars: crop plants ZEAMX, application rate 2 g/ha, scale 0 to 100. The class given is in vivo, Zea mays.
From the text: as §3, §4, §5, §6

Data set [9] relates to ALOMY. In words: greenhouse experiments, herbicidal activity, post-emergence treatment. Format: in vivo, Alopecurus myosuroides. Particulars: application rate 8 g/ha, scale 0 to 100.
From the text: as §3, §4, §5, §6

Each structure is given as a SMILES string.

In the case of `CCOC(=O)COc1ncccc1Oc1nc(-n2c(=O)cc(C(F)(F)F)n(C)c2=O)c(F)cc1Cl` [compound 7, Ethyl 2-[[3-[[3-chloro-5-fluoro-6-[3-methyl-2,6-dioxo-4-(trifluoromethyl)pyrimidin-1-yl]-2-pyridyl]oxy]-2-pyridyl]oxy]acetate], the “weed control (%) w.1” value in data set [1] (use rate 2 g/ha) is given as 93%; in [1] (use rate 4 g/ha) it was 100%. Moreover, in data set [1], the “activity on sensitive weeds (w.1)” value was “very good activity”. The “weed control (%) w.2” value in data set [2] (use rate 2 g/ha) and in [2] (use rate 4 g/ha) was 100% in each case. Moreover, the “activity on resistant weeds containing the ΔG210 mutation (w.2)” value in [2] is reported as “very good activity”. The “weed control (%) w.3” value in [3] (use rate 2 g/ha) and in data set [3] (use rate 4 g/ha) was 100% throughout. The “activity on resistant weeds containing the ΔG210 mutation (w.3)” value in [3] was “very good activity”.
On to `COC(=O)C(OC)Oc1ccccc1Oc1nc(-n2c(=O)cc(C(F)(F)F)n(C)c2=O)c(F)cc1Cl` (centres unmarked) [compound 2, Methyl 2-[2-[[3-chloro-5-fluoro-6-[3-methyl-2,6-dioxo-4-(trifluoromethyl)pyrimidin-1-yl]-2-pyridyl]oxy]phenoxy]-2-methoxy-acetate], for which the damages in data set [4] is 80; in [5] it was 70; in data set [6] it was 70; in [7], 90; in data set [8], 25; in data set [9], 70.
Consider `C#CCOc1cc(-n2nc3n(c2=O)CCCC3)c(Cl)cc1Cl` [azafenidin, reference compound], for which the “weed control (%) w.1” value turned out to be 88% in data set [1] (use rate 2 g/ha) and 100% in [1] (use rate 4 g/ha). Besides, the “weed control (%) w.2” value stood at 62% in data set [2] (use rate 2 g/ha) and 78% in data set [2] (use rate 4 g/ha). In addition, the “activity on resistant weeds containing the ΔG210 mutation (w.2)” value in data set [2] was “much weaker control of resistant in comparison to sensitive biotypes”. For the same compound, the “weed control (%) w.3” value in data set [3] (use rate 2 g/ha) and in data set [3] (use rate 4 g/ha) was 77% throughout. Besides, in data set [3], the “activity on resistant weeds containing the ΔG210 mutation (w.3)” value is reported as “much weaker control of resistant in comparison to sensitive biotypes”.
On to `CCOC(=O)COc1ccccc1Oc1nc(-n2c(=O)cc(C(F)(F)F)n(C)c2=O)c(F)cc1Cl` [compound 1, Ethyl 2-[2-[[3-chloro-5-fluoro-6-[3-methyl-2,6-dioxo-4-(trifluoromethyl)pyrimidin-1-yl]-2-pyridyl]oxy]phenoxy]acetate], for which the “weed control (%) w.1” value in data set [1] (use rate 2 g/ha) is reported as 88%; in data set [1] (use rate 4 g/ha) it was 100%. In data set [1], the “activity on sensitive weeds (w.1)” value is reported as “very good activity”. Besides, the “weed control (%) w.2” value in [2] (use rate 2 g/ha) was determined as 87%; in data set [2] (use rate 4 g/ha) it was 100%. Further, in data set [2], the “activity on resistant weeds containing the ΔG210 mutation (w.2)” value is on record as “very good activity”. Further, the figures for the “weed control (%) w.3” value in data set [3] (use rate 2 g/ha) and in data set [3] (use rate 4 g/ha) were 98% and 100%, respectively. Besides, the “activity on resistant weeds containing the ΔG210 mutation (w.3)” value in data set [3] is “very good activity”.
